In publication PMC11356571, “The Comparative Metabolism of a Novel Hepatocellular Carcinoma Therapeutic Agent, 2,3-Diamino-N-(4-(benzo[d]thiazol-2-yl)phenyl)propanamide, in Human and Animal Hepatocytes” (Metabolites, 2024):

Tests used:
CYP2C8 = target: T1, CYP2C8 (Homo sapiens, UniProt P10632); assay: Incubation with human cDNA-expressed CYP2C8; type: in vitro ADME; conditions: CYP2C8, 30 min at 37 °C with NADPH; ETN101 10 μM or M1 1 μM
T1 construct: purchased Cypex Ltd. (Dundee, UK)
T1 sequence (P10632 1-490): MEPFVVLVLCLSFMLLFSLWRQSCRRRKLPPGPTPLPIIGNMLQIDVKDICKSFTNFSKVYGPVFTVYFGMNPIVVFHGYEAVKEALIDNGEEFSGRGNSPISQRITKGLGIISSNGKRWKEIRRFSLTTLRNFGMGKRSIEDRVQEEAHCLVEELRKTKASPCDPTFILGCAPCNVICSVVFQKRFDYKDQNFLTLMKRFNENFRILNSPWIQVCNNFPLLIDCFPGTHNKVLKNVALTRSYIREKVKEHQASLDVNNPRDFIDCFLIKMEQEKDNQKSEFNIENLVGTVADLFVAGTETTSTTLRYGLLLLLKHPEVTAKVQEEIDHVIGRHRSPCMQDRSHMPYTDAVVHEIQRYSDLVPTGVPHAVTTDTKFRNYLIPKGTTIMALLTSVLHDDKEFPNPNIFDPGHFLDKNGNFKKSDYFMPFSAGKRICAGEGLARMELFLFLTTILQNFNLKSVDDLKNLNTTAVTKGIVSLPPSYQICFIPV
Method: ETN101 or M1 was incubated with nine human cDNA-expressed CYP enzymes (1A2, 2A6, 2B6, 2C8, 2C9, 2C19, 2D6, 2E1, and 3A4) to identify the CYPs involved in the metabolism of ETN101. Based on the preliminary study, the incubation conditions were determined as follows: Briefly, reaction mixtures of 50 μL containing ETN101 (final concentration: 10 μM) or M1 (final concentration: 1 μM), and CYPs (final amount: 5 pmol for CYP1A2, 2A6, 2C8, 2C9, 2C19, 2D6, and 3A4; 10 pmol for CYP2B6 and 2E1) were prepared in 0.1 M potassium phosphate buffer. The reaction was initiated by adding 50 μL of NADPH- regenerating system; the mixtures were incubated for 0 min or 30 min at 37 °C in triplicate. Reactions were terminated by the addition of 100 μL of ice-cold acetonitrile containing the IS (camptothecin, 200 ng/mL). Samples were centrifuged at 13,000 rpm for 5 min at 4 °C. An aliquot of 2 μL supernatant was injected in LC–MS/MS system.
For enzyme characterization, an Agilent 6460 triple quadrupole mass spectrometer coupled with a 1260 HPLC system (Agilent Technologies, Santa Clara, CA, USA) and a Kinetex Halo® C18 column (2.7 μm, 2.1 × 50 mm, Advanced Material Technology, Wilmington, DE, USA) were used for chromatographic separation. […] ETN101, M1, and M2 were detected via MRM using ESI in the positive mode. […]

CES1b = target: T2, CES1b (Homo sapiens, UniProt P23141); assay: Incubation with human recombinant CES1b; type: in vitro ADME; conditions: 60 min at 37 °C, ETN101 10 μM or M1 1 μM
T2 construct: purchased Corning Life Sciences (Woburn, MA, USA)
T2 sequence (P23141 18-567): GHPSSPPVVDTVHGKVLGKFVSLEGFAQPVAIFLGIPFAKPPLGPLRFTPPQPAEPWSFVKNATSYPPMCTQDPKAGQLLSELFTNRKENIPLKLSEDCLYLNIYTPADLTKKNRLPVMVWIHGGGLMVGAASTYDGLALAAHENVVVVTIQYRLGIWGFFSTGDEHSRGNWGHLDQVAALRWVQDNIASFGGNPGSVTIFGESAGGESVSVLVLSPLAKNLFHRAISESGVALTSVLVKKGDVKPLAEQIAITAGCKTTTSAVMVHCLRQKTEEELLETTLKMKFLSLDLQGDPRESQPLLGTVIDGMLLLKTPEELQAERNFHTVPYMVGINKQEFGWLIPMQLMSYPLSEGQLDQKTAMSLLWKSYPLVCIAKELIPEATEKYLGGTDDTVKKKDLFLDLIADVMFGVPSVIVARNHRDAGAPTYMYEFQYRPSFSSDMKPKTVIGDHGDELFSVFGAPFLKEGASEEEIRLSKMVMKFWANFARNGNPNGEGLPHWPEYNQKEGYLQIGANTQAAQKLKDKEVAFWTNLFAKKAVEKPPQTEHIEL
Method: To screen for CES enzymes responsible for the hydrolysis of ETN101 or M1, 50 μL of reaction mixtures containing human cDNA-expressed CES enzymes (CES1b, CES1c, and CES2) at the concentration of 1 mg/mL, 10 μM ETN101, or 1 μM M1 in 0.1 M potassium phosphate buffer were incubated at 37 °C for 0 min or 60 min in triplicate. The reactions were quenched by adding 50 μL of ice-cold acetonitrile containing the internal standard (camptothecin, 10 μg/mL). Following centrifugation at 13,000 rpm for 5 min, a 2 μL aliquot of the supernatant was injected into the LC-MS/MS system.
The mobile phases comprised 0.1% (v/v) formic acid in water (mobile phase A) and 0.1% formic acid (v/v) in acetonitrile (mobile phase B). […] The column and auto-sampler were maintained at 40 °C and 4 °C, respectively. ETN101, M1, and M2 were detected via MRM using ESI in the positive mode. […] Mass Hunter software (Agilent Technologies) was used to control the LC-MS/MS instrument and for data processing.

Row | Compound | Percentage remaining (CYP2C8) | Percentage remaining (CES1b)
1 | NCC(N)C(=O)Nc1ccc(-c2nc3ccccc3s2)cc1 (stereo not shown) [ETN101, 2,3-diamino-N-(4-(benzo[d]thiazol-2-yl)phenyl)propanamide] | 105.0% | 98.6%
2 | Nc1ccc(-c2nc3ccccc3s2)cc1 [M1, 2-(4-aminophenyl)benzothiazole] | 86.6% | 99.6%
